Results on 7 molecules are retold here after patent US11497788B2, “Supramolecular glycosaminoglycans” (Northwestern University, priority 2015, dated 2022).

“Also recorded” adds a separate entry of the source. Residues, ends and D or L forms follow the SMILES beside them. Groups on a side chain read outwards from the residue. *: point of attachment. X1 = CC(=O)NC1C(O)[C@H](O)C(COS(=O)(=O)O)O[C@H]1OCCn1cc(CCC(=O)*)nn1; X2 = O=C(O)C1O[C@@H](OCCn2cc(CCC(=O)*)nn2)C(O)C(O)[C@@H]1O; Acetyl(2-(HOCH2CH2OCH2CH2O)) = O=C(COCCOCCO)*; AEEA = NCCOCCOCC(=O)O; Propionyl = CCC(=O)*

The subject of data set [1] is BMP-2 signaling in C2C12 cells. Description: C2C12 osteoblast differentiation with BMP-2, alkaline phosphatase (ALP) activity. In kind it is cell-based, mouse. To be noted: for effect on BMP-2 activity / osteoblast differentiation (in words) / level of ALP expression relative to BMP-2 alone (factor): C2C12, BMP-2 75 ng/mL. As for the experimental part: (§1) C2C12 Cell Culture: C2C12 mouse myoblasts (ATCC) were maintained in Dulbecco's Modified Eagle's Medium with high glucose and L-glutamine (DMEM, ATCC), supplemented with 100 U/mL of penicillin and 100 μg/mL streptomycin (P/S, Life Technologies) and 10% heat inactivated FBS (Life Technologies), and passaged at 80-90% confluence. Media was changed every 2 days. Passages 3 to 8 were used for experiments. Cells were grown at 37° C., 5% CO2 in a humidified atmosphere. Cells were detached following a 3 minute incubation at 37° C. with 0.05% Trypsin-EDTA (Life Technologies), then resuspended in DMEM (10% FBS). Unless stated otherwise, cells were seeded at 75,000 cells/mL (400 μL/well in a 48-well plate), and allowed to attach for a minimum of 3 hours prior to experiments.
C2C12 Osteoblast Differentiation: PA samples were thermally annealed as described for Cryo-TEM. PA solutions were spun down, pipetted for homogeneous mixing, then diluted to 1 mM with DMEM (no FBS). In a 1.5 mL microcentrifuge tube, PA solutions were further diluted with DMEM (5% FBS), gently vortexed, and appropriate amounts of GFs (20 μg/mL) were added to yield [PA]=125 μM and [GF]=375 ng/mL. For mixing, the microcentrifuge tube was gently inverted several times by hand. Following, cells were treated by adding a 100 μl, of the PA/GF mixture per well (48-well plate), yielding a final 500 μl, differentiation medium with [PA]=25 μM and [GF]=75 ng/mL. For controls, the initial 5 mM PA solution was substituted with either PBS alone (saline) or heparin in PBS at appropriate concentrations. Cells were cultured for 3 days without changing the media, and osteoblast differentiation was assessed.
Alkaline Phosphatase Activity: Alkaline phosphatase (ALP) activity was measured as a marker of osteoblast differentiation (ref. 38; incorporated by reference in its entirety). On day 3, media was removed, and cells were lysed with a 100 μL, of M-PER Mammalian Protein Extraction Reagent (Life Technologies), supplemented with 1×Halt Protease Inhibitor Cocktail (Thermo Fisher Scientific), for 30 minutes on an orbital shaker. A 20 μL, volume of the cell lysate was incubated with 200 μL, of the QUANTI-Blue colorimetric ALP assay (InvivoGen) for 30 minutes to 2 hours at 37° C., in duplicates. The ALP activity was assessed by reading the OD at 630 nm with Cytation3 microplate reader (BioTek). Data were normalized to the respective endogenous DNA levels using Quant-iT PicoGreen dsDNA Assay Kit (Life Technologies). Two separate experiments with 4 replicates each were averaged for statistical analysis. […]

Data set [2] has as its system BMP-2, BMP-4, noggin, Shh, VEGF, FGF-1, FGF-2. Kind of data set: Surface plasmon resonance (SPR) binding to immobilized heparin binding GFs. Set-up: species or system human (Noggin murine). To be noted: analytes 50-500 nM; GFs immobilized on alginate surface; 25° C. As for the experimental part:
(§2) Surface Plasmon Resonance: The binding interactions between PAs (analytes) and growth factors (ligands) were analyzed via surface plasmon resonance (SPR) using a ProteON XPR36 system (Bio-Rad Laboratories). PA samples were thermally annealed as described for Cryo-TEM. PA solutions were spun down, pipetted for homogeneous mixing, and sequentially diluted to appropriate concentrations using Tween buffer (Milli-Q water, 0.05% Tween-20). Lyophilized powders of GFs were reconstituted to 5 μM without any carrier proteins according to the manufacturer's instructions. BMP-2, BMP-4, Shh, VEGF, and FGF-2 were further diluted to 200 nM in ProteOn Acetate Buffer pH 5.5, while FGF-1 was diluted to 200 nM in ProteOn Acetate Buffer pH 4.5. Noggin was diluted to 300 nM in ProteOn Acetate Buffer pH 5.5.
GFs were immobilized on a ProteOn GLC-Chip via amino coupling as described previously, with slight modifications (37). First, the alginate surface was activated with a freshly prepared mixture of 20 mM 1-Ethyl-3-[3-dimethylaminopropyl]carbodiimide hydrochloride (EDC) and 5 mM N-hydroxysulfosuccinimide (Sulfo-NHS) in Milli-Q water (vertical flow cells, 30 μL/min, 3 min). Following, GFs were immobilized on vertical flow cells 1 to 5 by perfusing a freshly prepared 200 nM (or 300 nM) solution over the activated alginate surface (30 μL/min, 5 min). Blank buffer was perfused on vertical cell 6 as a reference. The remaining esters were deactivated with 1 M ethanolamine (30 μL/min, 3 min). The association and dissociation phases were performed at 25° C. in Tween buffer. Prior to each analyte injection, the horizontal flow cells 1 to 6 were regenerated with 10 mM NaOH (100 μL/min, 30 sec) and washed once with Tween buffer (30 μL/min, 3 min). Varied analyte concentrations were injected to horizontal flow cells 1 to 5, with flow cell 6 as a reference (30 μL/min, 5 min), followed by dissociation with Tween buffer (30 μL/min, 10 min). For analysis, SPR sensorgram from the reference flow cell was subtracted from all measurement flow cells. Interaction data were evaluated using the BIAEvaluation 4.1 software. […]

A short description of data set [3]: Zeta potential measurements. In kind it is physicochemical. As for the experimental part: Zeta Potential Measurements: Zeta (ζ) potential was measured using a Malvern Zetasizer Nano ZS (n=3). PA samples were thermally annealed as described for Cryo-TEM. Following, PAs were diluted to 0.5 mM in DMEM. PA solutions were water-bath sonicated for 1 min prior to zeta potential measurement. Background reading from DMEM alone was subtracted from the final measurements.

Data set [4] has as its target T1, BMP-2 (Homo sapiens, UniProt P12643).
T1 construct: purchased Medtronic Sofamor Danek (Minneapolis, Minn.)
T1 sequence (P12643 283-396): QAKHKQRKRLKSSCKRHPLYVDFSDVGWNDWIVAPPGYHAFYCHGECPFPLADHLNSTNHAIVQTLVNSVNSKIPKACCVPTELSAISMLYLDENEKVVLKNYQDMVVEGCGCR
Kind of data set: SPR binding to BMP-2. The settings on record: azide-derivative, not assembled. As for the experimental part: as §2
(§3) GFs were immobilized on a ProteOn GLC-Chip via amino coupling as described previously, with slight modifications (37). First, the alginate surface was activated with a freshly prepared mixture of 20 mM 1-Ethyl-3-[3-dimethylaminopropyl]carbodiimide hydrochloride (EDC) and 5 mM N-hydroxysulfosuccinimide (Sulfo-NHS) in Milli-Q water (vertical flow cells, 30 μL/min, 3 min). […] Interaction data were evaluated using the BIAEvaluation 4.1 software. […]
(Surface plasmon resonance follows binding to a sensor surface in real time, without labels.)

In a further data set the target is T2, BMP-4 (Homo sapiens, UniProt P12644).
T2 construct: from E. coli were purchased from PeproTech, in their mature forms; purchased PeproTech; host or cells: E. coli
T2 sequence (P12644 293-408): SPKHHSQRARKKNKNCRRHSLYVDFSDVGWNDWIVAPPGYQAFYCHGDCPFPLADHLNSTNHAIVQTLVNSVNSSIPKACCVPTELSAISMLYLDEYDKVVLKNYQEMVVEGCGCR
Description: SPR binding to BMP-4. The settings on record: azide-derivative, not assembled. Here is the method:
as §2, §3

Data set [5] concerns BMP-4 signaling in C2C12 cells. Kind of data set: C2C12 osteoblast differentiation with BMP-4, ALP activity. It is filed as cell-based, mouse. As for the experimental part: as §1
C2C12 Osteoblast Differentiation: PA samples were thermally annealed as described for Cryo-TEM. PA solutions were spun down, pipetted for homogeneous mixing, then diluted to 1 mM with DMEM (no FBS). […] Cells were cultured for 3 days without changing the media, and osteoblast differentiation was assessed.
Alkaline Phosphatase Activity: Alkaline phosphatase (ALP) activity was measured as a marker of osteoblast differentiation (ref. 38; incorporated by reference in its entirety). […] The ALP activity was assessed by reading the OD at 630 nm with Cytation3 microplate reader (BioTek). […]

For data set [6], the target named is T1, BMP-2. Kind of data set: BMP-2 stability assay (ELISA) in C2C12 culture. It is filed as cell-based. The settings on record: 75 ng/mL BMP-2; 0, 3, 9, 24 h. Here is the method:
BMP-2 Stability Assay: C2C12 cells were seeded at 150,000 cells/mL (500 μL/well in a 48-well plate) and incubated overnight. Following, the media was replaced with treatment media (75 ng/mL BMP-2 in the presence/absence of PA 1, PA 4, and monosaccharide 1. The media was collected at 0, 3, 9, and 24 h and stored at −80° C. prior to BMP-2 quantification. In addition, the cell monolayers were lysed at the indicated time with a 100 μL of M-PER Mammalian Protein Extraction Reagent, supplemented with 1×Halt Protease Inhibitor Cocktail, and also stored at −80° C. prior to BMP-2 quantification. The amount of BMP-2 present in the media and cell extracts was assayed using a BMP-2 Quantikine ELISA kit (R&D Systems) according to the manufacturer's specifications.
For orientation: In an ELISA, binding on a coated surface is turned into a signal by an enzyme label.

Consider `CCC(=O)N[C@H](C(=O)N[C@H](C(=O)N[C@@H](C)C(=O)N[C@@H](C)C(=O)N[C@@H](CCC(=O)O)C(=O)N[C@@H](CCC(=O)O)C(N)=O)C(C)C)C(C)C` [PA 6, E2 PA] (Propionyl-VVAAEE-NH2), for which the “increase in ALP activity” value in data set [1] (PA 6 alone, 0% monosaccharide density, 25 μM PA, BMP-2 75 ng/mL, 3 days) was determined as 5 fold.
As for Heparan sulfate [reference compound], in data set [1] (3 days), the “effect on BMP-2 activity / osteoblast differentiation (in words)” value is recorded as “dose response increase” and the “level of ALP expression relative to BMP-2 alone (factor)” value worked out at 3.
Consider heparin [reference compound], for which the “binding to heparin binding GFs (SPR)” value in data set [2] is given as “moderate binding”. In data set [1] (3 days), the “effect on BMP-2 activity / osteoblast differentiation (in words)” value is given as “dose response increase; also recorded: more potent response than HS” and the “level of ALP expression relative to BMP-2 alone (factor)” value was 5.
As for `CCC(=O)N[C@H](C(=O)N[C@H](C(=O)N[C@@H](C)C(=O)N[C@@H](C)C(=O)N[C@@H](CCC(=O)O)C(=O)N[C@@H](CCC(=O)O)C(=O)N[C@@H](CCCCNC(=O)COCCOCCO)C(N)=O)C(C)C)C(C)C` [PA 5, OEG PA] (Propionyl-VVAAEEK(Acetyl(2-(HOCH2CH2OCH2CH2O)))-NH2), in data set [1] (3 days), the “effect on BMP-2 activity / osteoblast differentiation (in words)” value was “negligible effect”. Moreover, in data set [3], the “zeta potential / net charge of nanofibers” value (from here on “zeta potential / net charge”) is reported as “screened the net negative charge”.
In the case of `CCC(=O)N[C@H](C(=O)N[C@H](C(=O)N[C@@H](C)C(=O)N[C@@H](C)C(=O)N[C@@H](CCC(=O)O)C(=O)N[C@@H](CCC(=O)O)C(=O)N[C@@H](CCCCNC(=O)COCCOCCNC(=O)CCc1cn(CCO[C@@H]2OC(C(=O)O)[C@@H](O)C(O)C2O)nn1)C(N)=O)C(C)C)C(C)C` (stereo partly shown) [PA 3, GlcA PA] (Propionyl-VVAAEEK([AEEA-X2])-NH2), the “effect on BMP-2 activity / osteoblast differentiation (in words)” value in data set [1] (3 days) was “did not potentiate”. For the same molecule, in data set [1] (incorporated at the level of 10% or higher in PA 6, 25 μM PA, BMP-2 75 ng/mL), the “ALP activity, PA co-assembled with PA 6” value is recorded as “not to enhanced”. In addition, in data set [3], the “zeta potential / net charge” value is “comparable zeta potentials”.
For `CCC(=O)N[C@H](C(=O)N[C@H](C(=O)N[C@@H](C)C(=O)N[C@@H](C)C(=O)N[C@@H](CCC(=O)O)C(=O)N[C@@H](CCC(=O)O)C(=O)N[C@@H](CCCCNC(=O)COCCOCCNC(=O)CCc1cn(CCO[C@@H]2OC(COS(=O)(=O)O)[C@@H](O)C(O)C2NC(C)=O)nn1)C(N)=O)C(C)C)C(C)C` (stereo partly drawn) [PA 2, 6S-GlcNAc PA] (Propionyl-VVAAEEK([AEEA-X1])-NH2), the “increase in BMP-2 signaling (ALP activity)” value in data set [1] (nanofibers containing the monosulfated monosaccharide, density not stated, 25 μM PA, BMP-2 75 ng/mL) turned out to be 3 fold. Further, the “zeta potential / net charge” value in data set [3] was “comparable zeta potentials”.
With “2-Azidoethyl 2-acetamido-3,4,6-tri-O-sulfo-2-deoxy-β-D-glycopyranoside [monosaccharide 1]”, the “binding to heparin binding GFs (SPR)” value in data set [2] was “essentially does not bind”. In addition, the “binding to BMP-2 (SPR)” value on BMP-2 [4] is on record as “bound neither”. For the same molecule, on BMP-4, the “binding to BMP-4 (SPR)” value was “bound neither”. Moreover, the “effect on BMP-2 activity / osteoblast differentiation (in words)” value in data set [1] (3 days) is reported as “not to be the case”. Moreover, in data set [5], the “amplification of BMP-4 signaling” value is “not to be the case”. Besides, the “BMP-2 stability in cell culture media” value on BMP-2 [6] is given as “not”.
